Where only a bound is given, the exact number is not on record here.

The term melting point denotes the temperature, or range, at which the solid turns liquid. Consider `O=C1c2ccccc2C(=O)N1CCSCCc1ccco1`, for which the melting point lay within 53 to 55 °C.

Compound `Cn1cc(-c2cccc(C(F)(F)F)c2)c(=O)c(-c2ccc(F)cc2Cl)c1` showed a melting point of 183 to 186 °C.

`CN1CCN(CC(=O)N2c3ccccc3C(=S)Nc3cccnc32)CC1` displayed a melting point of 240 to 241 °C.

`O=c1c2ccccc2nnn1OS(=O)(=O)c1ccccc1` returned a melting point of 132 to 134 °C.

Take `CC(=O)Nc1ccc(S(=O)(=O)Cc2cccc(OC(C)=O)c2)c2ccc(C#N)nc12`: the melting point lay in the range of 229 to 231 °C.

`COC1(c2cc(F)cc(Sc3ccc4c(c3)C=CC4=NO)c2)CCOCC1` displayed a melting point of 124 to 136 °C.

Take `CSc1nc(O)c(NC(=O)c2ccco2)c(O)n1`: the melting point lay in the range of 124 to 125 °C.

`O=[N+]([O-])c1ccc2c(c1)C(N1CCCC1)C(O)CC2` (stereo not given): the melting point is 77 °C.

Compound `CC(C)/C=C(/C(=O)O)c1ccc(S(C)(=O)=O)cc1` yielded a melting point of 179 to 182 °C.

As to `COc1ccc(Nc2nc3cc4c(cc3[nH]2)C(C)(C)CC(=O)N4)cc1`, the melting point was 283 to 287 °C.

In turn, `COc1cc(OC)c2c(=O)[nH]c(-c3cc(C)c(OCCN4CCC4)c(C)c3)nc2c1` registered a melting point of 204 to 205 °C.

Compound `COc1ccc2cc(C3(O)CN4CCC3CC4)ccc2c1` (racemic) registered a melting point above 330 °C.

As for `CC(C)c1ccc2nc3c(C(=O)O)cccn3c(=O)c2c1`, the melting point fell in the range of 206 to 210 °C.

Turning to `C[C@@H](n1cnc2ncccc2c1=O)[C@](O)(Cn1cncn1)c1ccc(F)cc1F`, the melting point fell in the range of 210 to 211 °C.

As for `CCCCCCCCCCCCCCOc1ccc(C(N)=O)cc1`, the melting point lay in the range of 128 to 130 °C.

As for `CCOC(=O)CC(=O)Nc1cccc2ccccc12`, the melting point was in the range of 80 to 81 °C.

On to `CC(=O)SCC(=Cc1ccc2c(c1)OCO2)C(=O)NCCC(=O)OCc1ccccc1`, for which the melting point was found to be 76 °C.

Compound `N#Cc1ccc(COc2ccc3ccccc3c2C=O)cc1` yielded a melting point of 163 to 164 °C.

Compound `CC(C(=O)O)c1c(C(=O)c2ccccc2)[nH]c2cc(Cl)ccc12` (stereo not given) returned a melting point of 193 to 196 °C.

`CC(=O)N1CCc2ccc(C(O)CCCN3CCC(c4ccc(Cl)cc4)CC3)cc2CC1` (stereo not given): the melting point was in the range of 113 to 114 °C.

For the compound `COCCOC(=O)c1cncn1C1CCCc2ccccc21` (stereo not given), the melting point was determined as 66.8 °C.

Turning to `Cc1cc(C)c2c(c1OCC(=O)O)Cc1sc(SCCC(c3ccccc3)c3ccccc3)nc1-2`, the melting point is 156 to 158 °C.

For the compound `C=C1C(c2ccccc2)=C(c2ccc(S(C)(=O)=O)cc2)C1(Cl)Cl`, the melting point fell in the range of 124 to 126 °C.

In turn, `CCc1cc(C)cc(CC)c1NC(=S)NC(C)(C)CC` had a melting point of 98 to 101 °C.

For `CN1C(=O)C2C3CCC(C3)C2(c2cccc(Br)c2)C1=O` (stereo not given), the melting point lay within 105 to 107 °C.

Regarding `COc1cc(NC(=O)CCCCCN2CC(C)OC(C)C2)c2nccc(C)c2c1` (stereo not given), the melting point lay in the range of 87 to 90 °C.

For the compound `Cc1cc(C)c(Nc2nc(C)ccc2S(=O)(=O)c2ccc(OCc3cccc(C#N)c3)cc2)c(C)c1`, the melting point lay in the range of 155 to 158 °C.

In turn, `CCOC(=O)COc1ccc(C2=NNC(=O)NC2)cc1` gave a melting point of 181 to 183 °C.

In turn, `Cc1ccc(OC(=O)N2CCC[C@H]2C(=O)O)cc1` returned a melting point of 76 to 77 °C.

Turning to `C[C@H](Nc1nc(Nc2cccc(NS(C)(=O)=O)c2)nc2[nH]cnc12)c1ccccc1`, the melting point was in the range of 136 to 139 °C.

Compound `CC(C)(C)OC(=O)N1CCc2c(C=O)c3ccccc3n2CC1` displayed a melting point of 167 to 168 °C.

Turning to `Oc1cccc2c1CC(N1CCN(c3ncccn3)CC1)CC2` (stereo not given), the melting point is above 300 °C.

Take `Cc1ccc2c(c1)OC(CCO)C(=O)N2` (stereo not given): the melting point was 143 to 144 °C.

`CCC[C@@H](C)C(C(=O)O)C(=O)O` displayed a melting point of 95 °C.

As to `CC(C)(C)OC(=O)NCc1ccc2cc(C(N)=O)[nH]c2c1`, the melting point was 209 to 210 °C.

On to `Clc1ccc(Nc2nnc(Cc3ccncn3)c3ccccc23)cc1`, for which the melting point was in the range of 174 to 176 °C.

For `CC(=O)S[C@@H]1CCNC1=S`, the melting point was 98 to 100 °C.

Take `CC(C)(C)c1cc(C[C@@H]2SCNC2=O)cc(C(C)(C)C)c1O`: the melting point lay in the range of 149 to 150 °C.

As for `CCOC(=O)C=Cc1cc(OC)ccc1-c1ccc(-c2ccc(OC)c(Cl)c2)c(C=O)c1`, the melting point was 150 to 152 °C.

The compound `CN(C)S(=O)(=O)Oc1cc(-n2c(=O)cc(C(F)(F)F)n(C)c2=O)c(F)cc1Cl` returned a melting point of 118 to 120 °C.

On to `CC(=O)CN1C(=O)c2ccccc2C1=O`, for which the melting point fell in the range of 92 to 94 °C.

`Clc1ccc(C2OC(c3ccncc3)=Nc3ccc(Cl)cc32)cc1` (stereo not given) yielded a melting point of 140 to 141 °C.

Take `COc1ccc(CN(CCN(C)CCCCNC(=O)NCCSCc2csc(NC(=N)N)n2)c2ccccn2)cc1`: the melting point lay in the range of 104 to 106 °C.

`O=C(O)C(Cc1ccccc1)NC(=O)N1CCc2cc(S(=O)(=O)N3CCN(c4cccc(Cl)c4)CC3)ccc21` (stereo not given) had a melting point of 134 to 135 °C.

`CC(=O)Oc1ccc2ncnc(Nc3ccc(OCc4ccccn4)c(C)c3)c2c1` displayed a melting point of 149 to 151 °C.

As to `CC(C)CC(Cn1cc(Sc2ccccc2)c2ccccc21)N(O)C(N)=O` (stereo not given), the melting point came out at 57 °C.

With `O=C1C(Cc2ccccc2CF)c2ccccc2C12COc1cc3c(cc12)OCCO3` (stereo not given), the melting point fell in the range of 188 to 190 °C.

As to `CC(C)n1nc(-c2ccc(O)cc2O)c2cccc(C(F)(F)F)c21`, the melting point lay in the range of 61 to 63 °C.

For `CC(=O)NC[C@H]1CN(c2ccc(N3CCC(F)(CI)CC3)c(F)c2)C(=O)O1`, the melting point lay within 166 to 168 °C.

The compound `COC(=O)c1cc(OC)c(C(=O)O)cc1OC` came in with a melting point of 123 to 124 °C.

Compound `CCOP(=O)(CCC(OC)(C(=O)c1ccccc1)c1ccccc1)OCC` (stereo not given) gave a melting point of 60 to 62 °C.

Compound `Clc1ccc2c(c1)C1(CN3CCC(Nc4ncccn4)CC3)CC2c2ccccc21` (stereo not given) displayed a melting point of 212 to 214 °C.

For the compound `COC(=O)c1cc(-n2c(=O)c3c(n(C)c2=O)CCC3)c(F)cc1Cl`, the melting point was 138 to 141 °C.

For the compound `CC(C)[C@H](OCc1ccccc1)[C@H]1[C@H]([N+](=O)[O-])[C@H](C(C)(C)C)N[C@@H]1C(=O)NCC(=O)O`, the melting point was 119 to 120 °C.

Compound `CCOC(=O)CC(=O)c1ccc(-c2ccc(Cl)cc2)o1` yielded a melting point of 46 to 47 °C.

As for `C=CCOc1cc(C(O)CS(C)(=O)=O)cc(OCC=C)c1NC(C)=O` (stereo not given), the melting point is 162 °C.

Compound `COC(=O)C1CCC2C3CCC4CC(C)(O)CCC4(C)C3C(=O)CC12C` (stereo not given) showed a melting point of 150 °C.

`CCOC(=O)c1c(C)nc(O)nc1O` yielded a melting point of 145 to 148 °C.

Regarding `C#Cc1cccc(NC(=O)CCCC(=O)O)c1`, the melting point is 150 to 154 °C.

`Cc1ccc(C(=C/C=C/CO)c2ccc(C)cc2)cc1` gave a melting point of 82 to 83 °C.

`CN1C(=O)CCC2=C1Cc1cc(C(=O)c3ccc(Cl)c(S(N)(=O)=O)c3)ccc12`: the melting point fell in the range of 259 to 260 °C.

`C/C(=C\c1ccc(OCCN2CCOCC2)cc1)c1ccc2c(c1)SC(C)(C)S2` returned a melting point of 90 to 91 °C.

Turning to `Nc1nc(N)nc(-c2ccc(NS(=O)(=O)c3ccccc3)cc2)n1`, the melting point lay in the range of 197 to 199 °C.

For the compound `COc1ccc2c(c1)c(C=C1SC(=N)NC1=O)c(C)n2C(=O)c1ccc(Cl)cc1`, the melting point fell in the range of 269 to 270 °C.

`CCOC(=O)/C=C/c1ccc(OCC(C)=O)cc1Oc1ncc(C(F)(F)F)cc1Cl` registered a melting point of 167 to 168 °C.

For `O=C(O)CCCCCCCCCCCCCCC(=O)ON1C(=O)c2ccccc2C1=O`, the melting point fell in the range of 109 to 110 °C.

Consider `COc1cc(CC#Cc2c(C)nc(N)nc2N)cc(OC)c1OC`, for which the melting point lay in the range of 164 to 166 °C.

`Cc1cn2c(C(F)(F)F)nnc2c2ccccc12` displayed a melting point of 162 to 164 °C.

Regarding `OC[C@H]1CCCN1c1nc2c(-c3nc(C4CC4)no3)ncn2c2cccc(Cl)c12`, the melting point was 220 to 221 °C.

The compound `CC(C)c1noc(-c2c(Cl)ccc(C(=O)O)c2Cl)n1` yielded a melting point of 104 to 107 °C.

As to `N#CCCNC1CCCC1`, the melting point lay in the range of 81 to 84 °C.

Compound `O=C(O)c1ccc(CCCC2SCC(=O)N2CCC2(O)CCCCC2)cc1Cl` (stereo not given) returned a melting point of 104 to 108 °C.

Compound `CCOC(=O)C1=C(C)N(c2ccc(Cl)cc2)C(=O)CC1` returned a melting point of 124 to 126 °C.

In turn, `Cc1cccc(C)c1NNC(=O)OCCCl` had a melting point of 74 to 75 °C.

The compound `O=C(Cc1ccc(Cl)c(Cl)c1)c1ccc(Cl)cc1` displayed a melting point of 99 to 103 °C.

Regarding `O=C1N=C2CCCCN2C12CCNCC2`, the melting point was 220 °C.

The compound `CCC(CC)Nc1c(NCc2ccc(OC)c(OC)c2)c(=O)c1=O` had a melting point of 223 to 224 °C.

The compound `CS(=O)(=O)OC(c1ccc(C(OS(C)(=O)=O)(C(F)(F)F)C(F)(F)F)cc1)(C(F)(F)F)C(F)(F)F` came in with a melting point of 151 °C.

With `NC1CSC(c2cccs2)CNC1=O` (stereo not given), the melting point is 157 °C.

For the compound `COc1cc2c(=O)c(S(C)=O)cn(C)c2cc1F` (stereo not given), the melting point lay in the range of 263 to 264 °C.

On to `COc1ccc(CCCCNC(=O)C(F)(F)F)cc1S(N)(=O)=O`, for which the melting point was in the range of 145 to 147 °C.

Compound `CCC(=O)OC1CCC2C3CCC4=CC(=O)CCC4(CO)C3CCC12C` (stereo not given) displayed a melting point of 160 to 162 °C.

The compound `CC(=O)OC1C(N(C)S(C)(=O)=O)c2cc(OCc3ccccc3)ccc2OC1(C)C` (stereo not given) yielded a melting point of 124 to 125 °C.

In the case of `c1cc(NC2=NCCN2)ccc1Cc1ccc(N2CCOCC2)cc1`, the melting point was in the range of 177 to 179 °C.

Consider `COC(=O)Cc1ccc(OCCNC(=O)C2Cc3ccccc3N2S(=O)(=O)c2ccc(-c3ccc(F)cc3F)cc2)cc1` (stereo not given), for which the melting point was 60 to 64 °C.

`O=C(NCCCCOc1ccc(-n2ccnc2)cc1)Nc1ccc(Br)cc1` registered a melting point of 157 to 159 °C.

The compound `CN(C(=O)OC(C)(C)C)[C@@H](Cc1ccc(O)cc1)C(=O)N1CCN(c2ccc(Cl)c(Cl)c2)CC1` came in with a melting point of 77 to 78 °C.

`CCC(C)(C)Cc1ccc(C(=O)O)c(=O)[nH]1` displayed a melting point of 170 to 172 °C.

Compound `O=C(O)c1csc(-c2ccc3cc(O)c(C45CC6CC(CC(C6)C4)C5)cc3c2)c1` yielded a melting point of 312 to 314 °C.

As to `CC(C)CCCC(=O)OC1c2ccccc2C(=O)N1c1ccc2ccc(Cl)nc2n1` (stereo not given), the melting point was 132 °C.

These data come from a melting point compilation (Tetko et al.; mined from patent text by program, amines drawn as free bases though some values may be those of a salt).
